Data: patent US12687539B2 (priority 2019, dated 2026)

What was measured:
rat = details: in vivo; cited from earlier work
[1] = tested on: DAS5G11E7 monoclonal antibody; type: binding, mouse

## CC(=O)OC[C@]12CCC(C)=C[C@H]1O[C@@H]1[C@H](O)[C@@H](OC(C)=O)[C@@]2(C)[C@]12CO2 [DAS, diacetoxyscirpenol]
rat
  LDS: 0.75 mg/kg
[1]
  Cross reactivity: 100%
